In patent US20050107455A1, “Novel tricycloimidazoline derivatives method for production and use thereof as medicaments” (priority 2002, published 2005):
Structures can show the parent of a compound that is named as a salt.

Tests used:
human alpha-2B receptor = molecular target: T1, human alpha-2B receptor (Homo sapiens, UniProt P18089); assay: Binding to the adrenergic alpha-2B receptor, [3H]RX 821002, C6 cell membranes; conditions: membranes of C6 cells expressing human alpha-2B; 2 nM [3H]RX 821002; 30 minutes at 25° C.; read-out: Affinity (pKi) Alpha-2B (converted)
T1 construct: expressed in transfected cells; host or cells: C6 cells (permanent expression), membranes
T1 sequence (P18089 1-450): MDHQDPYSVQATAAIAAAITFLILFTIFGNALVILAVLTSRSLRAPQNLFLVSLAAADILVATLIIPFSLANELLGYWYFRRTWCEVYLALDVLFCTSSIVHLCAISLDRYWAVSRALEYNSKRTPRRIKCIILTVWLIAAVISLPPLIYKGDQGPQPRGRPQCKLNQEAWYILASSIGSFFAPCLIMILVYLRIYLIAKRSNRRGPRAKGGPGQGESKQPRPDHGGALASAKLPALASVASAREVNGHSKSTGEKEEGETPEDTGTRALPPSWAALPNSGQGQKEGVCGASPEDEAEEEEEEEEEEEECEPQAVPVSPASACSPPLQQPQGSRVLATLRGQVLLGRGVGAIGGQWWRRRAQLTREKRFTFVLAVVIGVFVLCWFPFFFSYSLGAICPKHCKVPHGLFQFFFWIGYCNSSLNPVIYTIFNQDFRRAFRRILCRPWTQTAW
Protocol: (§1) Membranes of C6 cells permanently expressing either the human alpha-2A or alpha-2B receptor are prepared in Tris-HCl (pH=7.6). The binding tests are performed with 2 nM [^3H]RX 821002. The incubation medium is composed of 0.4 ml of cell membranes (10 μg of proteins), 0.05 ml of radioligand and 0.05 ml of test product or of phentolamine (10 μM) to determine the nonspecific binding. The reaction is quenched after incubation for 30 minutes at 25° C. by adding 3 ml of cold 50 mM Tris-HCl (pH=7.6), followed by filtration through Whatman GF/B filters using a Brandel. The Ki values are calculated according to the equation Ki=IC50/(1+C/Kd) in which C is the concentration and Kd the dissociation constant, pKi=−logKi. Under these conditions, it is seen that the compounds of the invention have high affinity for the receptors of the human adrenergic alpha-2A subtype, whereas they have little or no affinity for the receptors of the human adrenergic alpha-2B subtype (cf. above table). This unexpected receptor selectivity of the compounds of the invention, compared with the compounds of the prior art, may have a favorable impact on their tolerance.

human alpha-2A receptor = molecular target: T2, human alpha-2A receptor (Homo sapiens, UniProt P08913); assay: Binding to the adrenergic alpha-2A receptor, [3H]RX 821002, C6 cell membranes; conditions: membranes of C6 cells expressing human alpha-2A; 2 nM [3H]RX 821002; 30 minutes at 25° C.; read-out: Affinity (pKi) Alpha-2A (converted)
T2 construct: expressed in transfected cells; host or cells: C6 cells (permanent expression), membranes
T2 sequence (P08913 1-465): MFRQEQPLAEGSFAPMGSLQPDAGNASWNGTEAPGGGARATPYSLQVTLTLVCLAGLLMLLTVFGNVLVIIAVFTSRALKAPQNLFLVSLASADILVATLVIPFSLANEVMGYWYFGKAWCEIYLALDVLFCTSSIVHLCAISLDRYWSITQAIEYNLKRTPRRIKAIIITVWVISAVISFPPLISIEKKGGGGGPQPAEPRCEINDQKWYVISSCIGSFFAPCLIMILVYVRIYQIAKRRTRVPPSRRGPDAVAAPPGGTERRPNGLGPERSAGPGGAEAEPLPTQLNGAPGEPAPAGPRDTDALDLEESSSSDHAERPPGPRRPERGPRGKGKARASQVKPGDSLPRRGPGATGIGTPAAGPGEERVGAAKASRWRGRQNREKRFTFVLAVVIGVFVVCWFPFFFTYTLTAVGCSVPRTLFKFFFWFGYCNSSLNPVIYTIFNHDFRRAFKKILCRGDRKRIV
Protocol: as §1

[1] = molecular target: T3, human alpha-2A adrenergic receptors (Homo sapiens, UniProt P08913); assay: Measurement of the activation of the adrenergic alpha-2 receptors (GTPγS response on membrane preparations); assay type: biochemical; conditions: GTPγS response versus maximum stimulation by (−)-adrenalin, negative = inverse agonist, read-out: Intrinsic activity % stimulated
T3 construct: host or cells: membrane preparations
T3 sequence (P08913 1-465): T2 sequence (P08913 1-465)
Protocol: Measurement of the Activation of the Adrenergic Alpha-2 Receptors:
The responses as GTPγS are performed on membrane preparations in 20 mM HEPES (pH=7.4) with 30 μM of GDP, 100 mM of NaCl, 3 mM of MgCl2 and 0.2 mM of ascorbic acid. The maximum stimulation of the GTPγS is determined in the presence of […] of (−)-adrenalin and calculated versus the basal GTPγS response. The results are expressed versus either adrenalin or RX 81105-9. Under these conditions, the compounds of the invention are distinguished from most of the compounds of the prior art of the 4,5-dihydro-1H-imidazole and/or 1H-imidazole type in that they behave rather as inverse agonists on human alpha-2A adrenergic receptors (cf. above table).

[2] = test system: Scopolamine-induced memory deficiency; assay: Test of scopolamine-induced memory deficiency (passive avoidance); assay type: in vivo; conditions: rats
Excerpt: Test of Scopolamine-Induced Memory Deficiency:
Scopolamine has amnesiant properties in man and animals. Thus, its administration to a healthy person causes certain symptoms similar to what is observed in Alzheimer's disease. Scopolamine-induced memory deficiency is thus used as an experimental pharmacological model of this pathology. Scopolamine reduces the capacity for acquisition, memorization and recall in a test of passive avoidance in rats. […] The administration of scopolamine suppresses this reticence, and the test compounds counter the effect of scopolamine. The experimental protocol used is described in Psychopharmacol. 1992, 106, 26-30.

| melting point | Ki (human alpha-2B receptor) | Ki (human alpha-2A receptor) | Emax [1] | Compound | also measured |
| --- | --- | --- | --- | --- | --- |
| 170 to 172 °C |  |  |  | COC1c2ccccc2C2CC21C1=NCCN1 (single isomer, unassigned; (+)) (as salt: fumarate) [(+) -XV-1, (+)-2-(6-Methoxy-1a,6-dihydro-1H-cyclopropa[a]inden-6a-yl)-4,5-dihydro-1H-imidazole] |  |
|  | > 10 µM | 0.00398 µM | -63% | COC1c2ccccc2C2CC21C1=NCCN1 (single isomer, unassigned; (+)) [(+) -XV-1, (+)-2-(6-Methoxy-1a,6-dihydro-1H-cyclopropa[a]inden-6a-yl)-4,5-dihydro-1H-imidazole] |  |
| 177 to 179 °C |  |  |  | COc1cccc2c1C1C[C@@]1(C1=NCCN1)[C@H]2OC (stereo in doubt) (as salt: fumarate) [XV-1a, 2-(2,6-Dimethoxy-1a,6-dihydro-1H-cyclopropa[a]inden-6a-yl)-4,5-dihydro-1H-imidazole] |  |
| 173 to 175 °C |  |  |  | CO[C@H]1c2ccccc2C2C[C@]21C1=NCCN1 (mixture of isomers) (as salt: fumarate) [XV-1, 2-(6-Methoxy-1a,6-dihydro-1H-cyclopropa[a]-inden-6a-yl)-4,5-dihydro-1H-imidazole] |  |
|  | 0.316 µM | 0.0126 µM | -2% | CO[C@H]1c2ccccc2C2C[C@]21C1=NCCN1 (mixture of isomers) [XV-1, 2-(6-Methoxy-1a,6-dihydro-1H-cyclopropa[a]-inden-6a-yl)-4,5-dihydro-1H-imidazole] | Scopolamine-induced memory deficiency amplitude of the effect % ([2]; dose 2.5 mg/kg i.p.): +168 (2.5) % |
| 133 to 135 °C |  |  |  | C[C@@H]1[C@H]2c3ccccc3C[C@@]12C1=NCCN1 (racemic) (as salt: fumarate) [XVII-2, 2-(1-exo-Methyl-1a,6-dihydro-1H-cyclopropa-[a]inden-6a-yl)-4,5-dihydro-1H-imidazole] |  |
| 245 to 247 °C |  |  |  | c1ccc2c(c1)CC1(C3=NCCN3)CC21 (single isomer, unassigned; (-)) (as salt: hydrochloride) [(−)-XVII-1, (−)-2-(1a,6-Dihydro-1H-cyclopropa[a]inden-6a-yl)-4,5-dihydro-1H-imidazole] |  |
|  |  |  | 100% | CNCC(O)c1ccc(O)c(O)c1 (single isomer, unassigned; (-)) [(−)-adrenalin, reference compound] |  |
|  | 0.02 µM | 0.00316 µM | -64% | C[C@@H]1[C@H]2c3ccccc3C[C@@]12C1=NCCN1 (racemic) [XVII-2, 2-(1-exo-Methyl-1a,6-dihydro-1H-cyclopropa-[a]inden-6a-yl)-4,5-dihydro-1H-imidazole] | Scopolamine-induced memory deficiency amplitude of the effect % ([2]; dose 0.63 mg/kg i.p.): +181 (0.63) % |
|  |  |  |  | COc1cc2c(cc1OC)C(=O)C(CC1CCN(Cc3ccccc3)CC1)C2 (stereo not drawn) [donepezil, reference compound] | Scopolamine-induced memory deficiency amplitude of the effect % ([2]; dose 0.16 mg/kg i.p.): +67 (0.16) % |
